Six compounds from ChEMBL document CHEMBL1142690, “Synthesis of NO-donor bisphosphonates and their in-vitro action on bone resorption” (J Med Chem, 2005) can be followed below.

The subject of test [1] is RAW264.7. Put plainly: Effect of compound on osteoclasts formation (compound concentration of 100 nM, RANKL at 50 ng/ml and ODQ at 10 uM) as observed in clonal RAW264.7 cells. The class given is functional, Mus musculus.
Test [2] relates to RAW264.7. The experiment in a line: Effect of compound on osteoclasts formation (compound concentration of 100 nM and RANKL at 50 ng/ml) as observed in clonal RAW264.7 cells. The class given is functional, Mus musculus.
Test [3] in a line: Affinity for hydroxyapatite after 24 hours. In kind it is functional.
Test [4] is described as follows: Dissociation constant determined by the pH-metric method. The class given is functional.
Test [5] deals with Rattus. Put plainly: Effect of compound on osteoclast resorption activity at concentration of 100 nM in rat femur. The class given is functional.
The species named for test [6] is Rattus norvegicus. The experiment in a line: Effect of compound on osteoclasts formation at concentration of 100 nM in rat femurs. In kind it is functional, Femur.
Test [7] has as its system Rattus. The experiment in a line: Effect of compound on osteoclast resorption activity at concentration of 100 nM in rat femurs. In kind it is functional, Femur.

In test [1], `O=[N+]([O-])OCCCCC(O)(P(=O)(O)O)P(=O)(O)O` had a Count of 59.6. The Count in test [2] stood at 32.8. The compound also had an Affinity in test [3] of 43.4%. In test [4], this compound came in with a pKa1 of under 1.5, a pKa2 of 2.85, a pKa3 of 6.83 and a pKa4 of 11.3.
Compound `O=[N+]([O-])OCCCCC(P(=O)(O)O)P(=O)(O)O` displayed a Count in test [1] of 58.9. In test [2], this compound gave a Count of 40.2. Further, the Ratio in test [5] is 1.18. In test [6], this compound yielded a Count of 21.88. This compound also returned an Affinity in test [3] of 65%. Further, in test [4], the pKa1 is under 1.5, the pKa2 was 3.08, the pKa3 is 6.87 and the pKa4 is 11.5.
For the compound `CC(C)C[C@H](NC(=O)[C@H](CCCCN)NC(=O)CNC(=O)[C@H](CC(C)C)NC(=O)[C@@H](NC(=O)[C@@H]1CSSC[C@H](N)C(=O)N[C@@H](CO)C(=O)N[C@@H](CC(N)=O)C(=O)N[C@@H](CC(C)C)C(=O)N[C@@H](CO)C(=O)N[C@@H]([C@@H](C)O)C(=O)N1)C(C)C)C(=O)N[C@@H](CO)C(=O)N[C@@H](CCC(N)=O)C(=O)N[C@@H](CCC(=O)O)C(=O)N[C@@H](CC(C)C)C(=O)N[C@@H](Cc1c[nH]cn1)C(=O)N[C@@H](CCCCN)C(=O)N[C@@H](CC(C)C)C(=O)N[C@@H](CCC(N)=O)C(=O)N[C@H](C(=O)N[C@@H](Cc1ccc(O)cc1)C(=O)N1CCC[C@H]1C(=O)N[C@@H](CCCNC(=N)N)C(=O)N[C@H](C(=O)N[C@@H](CC(N)=O)C(=O)N[C@H](C(=O)NCC(=O)N[C@@H](CO)C(=O)NCC(=O)N[C@H](C(=O)N1CCC[C@H]1C(N)=O)[C@@H](C)O)[C@@H](C)O)[C@@H](C)O)[C@@H](C)O` [CALCITONIN SALMON], the Count in test [6] came out at 27.5. In test [7], the Ratio worked out at 0.01.
In turn, `O=P(O)(O)C(Sc1ccc(Cl)cc1)P(=O)(O)O` had an Affinity in test [3] of 58.4%. In addition, in test [4], the pKa1 is under 1.5, the pKa2 came to 2.27, the pKa3 turned out to be 6.31 and the pKa4 worked out at 10.6.
Take `CCCCC(P(=O)(O)O)P(=O)(O)O`: the Count is 62.4 in test [1] and 61.2 in test [2].
Consider `CCCCCN(C)CCC(O)(P(=O)(O)O)P(=O)(O)O` [IBANDRONIC ACID], for which the Count in test [1] was 34.2; in test [2], 39.8.
